From PubChem BioAssay (NCI)
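How tested: cells in 96-well plates exposed to compound for 48 hours at five concentrations. The concentration for 50% growth inhibition is given as GI50. At the TGI there is no net growth.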

Assays:
Test in all cases: inhibition of tumour cell growth, NCI panel, 48 h
HCC-2998 colon = system: HCC-2998 colon
SK-OV-3 ovarian = system: SK-OV-3 ovarian
HOP-92 NSCLC = system: HOP-92 NSCLC
BT-549 breast = system: BT-549 breast
DU-145 prostate = system: DU-145 prostate
HCT-15 colon = system: HCT-15 colon
SF-539 CNS = system: SF-539 CNS
M14 melanoma = system: M14 melanoma
COLO 205 colon = system: COLO 205 colon
ACHN renal = system: ACHN renal
CCRF-CEM leukemia = system: CCRF-CEM leukemia
UACC-257 melanoma = system: UACC-257 melanoma
OVCAR-8 ovarian = system: OVCAR-8 ovarian
NCI-H522 lung = system: NCI-H522 lung
UO-31 renal = system: UO-31 renal
SF-268 CNS = system: SF-268 CNS
SK-MEL-28 melanoma = system: SK-MEL-28 melanoma
SF-295 CNS = system: SF-295 CNS
MCF7 breast = system: MCF7 breast
MDA-MB-231 breast = system: MDA-MB-231 breast
NCI/ADR-RES ovarian = system: NCI/ADR-RES ovarian
SNB-19 CNS = system: SNB-19 CNS
A498 renal = system: A498 renal
RPMI-8226 leukemia = system: RPMI-8226 leukemia
OVCAR-5 ovarian = system: OVCAR-5 ovarian
HL-60(TB) leukemia = system: HL-60(TB) leukemia
T-47D breast = system: T-47D breast
K-562 leukemia = system: K-562 leukemia
LOX IMVI melanoma = system: LOX IMVI melanoma
SN12C renal = system: SN12C renal
OVCAR-4 ovarian = system: OVCAR-4 ovarian
HOP-62 NSCLC = system: HOP-62 NSCLC
OVCAR-3 ovarian = system: OVCAR-3 ovarian
NCI-H226 lung = system: NCI-H226 lung
IGROV1 ovarian = system: IGROV1 ovarian
A549 NSCLC = system: A549 NSCLC
NCI-H460 lung = system: NCI-H460 lung
PC-3 prostate = system: PC-3 prostate
UACC-62 melanoma = system: UACC-62 melanoma
NCI-H23 lung = system: NCI-H23 lung
SK-MEL-5 melanoma = system: SK-MEL-5 melanoma
EKVX NSCLC = system: EKVX NSCLC
MDA-MB-435 = system: MDA-MB-435
HT29 colon = system: HT29 colon
HS 578T breast = system: HS 578T breast
U251 CNS = system: U251 CNS
SK-MEL-2 melanoma = system: SK-MEL-2 melanoma
786-0 renal = system: 786-0 renal
KM12 colon = system: KM12 colon
SW-620 colon = system: SW-620 colon
CAKI-1 renal = system: CAKI-1 renal
MOLT-4 leukemia = system: MOLT-4 leukemia
SR leukemia = system: SR leukemia
TK-10 renal = system: TK-10 renal
HCT-116 colon = system: HCT-116 colon

## COc1ccc2c(c1)C(C)Cc1c(ncnc1-n1cnc3ccccc31)N2C (stereo not given)
HCC-2998 colon
  GI50: 922 nM
  TGI: 10400 nM
SK-OV-3 ovarian
  GI50: 429 nM
  TGI: 16000 nM
HOP-92 NSCLC
  GI50: 441 nM
  TGI: 8230 nM
BT-549 breast
  GI50: 470 nM
  TGI: 10300 nM
DU-145 prostate
  GI50: 439 nM
  TGI: 10300 nM
HCT-15 colon
  GI50: 367 nM
  TGI: 10900 nM
SF-539 CNS
  GI50: 251 nM
  TGI: 774 nM
M14 melanoma
  GI50: 313 nM
  TGI: 12700 nM
COLO 205 colon
  GI50: 330 nM
  TGI: 1370 nM
ACHN renal
  GI50: 635 nM
  TGI: 27400 nM
CCRF-CEM leukemia
  GI50: 481 nM
  TGI: 20500 nM
UACC-257 melanoma
  GI50: 13600 nM
  TGI: 26600 nM
OVCAR-8 ovarian
  GI50: 959 nM
  TGI: 87400 nM
NCI-H522 lung
  GI50: 254 nM
  TGI: 744 nM
UO-31 renal
  GI50: 720 nM
  TGI: 19200 nM
SF-268 CNS
  GI50: 822 nM
  TGI: 18100 nM
SK-MEL-28 melanoma
  GI50: 10100 nM
  TGI: 22900 nM
SF-295 CNS
  GI50: 292 nM
  TGI: 10200 nM
MCF7 breast
  GI50: 313 nM
  TGI: 14000 nM
MDA-MB-231 breast
  GI50: 1040 nM
  TGI: 4350 nM
NCI/ADR-RES ovarian
  GI50: 395 nM
  TGI: > 100000 nM
SNB-19 CNS
  GI50: 695 nM
  TGI: 27500 nM
A498 renal
  GI50: 234 nM
  TGI: 10200 nM
RPMI-8226 leukemia
  GI50: 556 nM
  TGI: 27600 nM
OVCAR-5 ovarian
  GI50: 6210 nM
  TGI: 43900 nM
HL-60(TB) leukemia
  GI50: 352 nM
  TGI: 3740 nM
T-47D breast
  GI50: 432 nM
  TGI: 64600 nM
K-562 leukemia
  GI50: 384 nM
  TGI: > 100000 nM
LOX IMVI melanoma
  GI50: 602 nM
  TGI: 18200 nM
SN12C renal
  GI50: 958 nM
  TGI: 34000 nM
OVCAR-4 ovarian
  GI50: 1250 nM
  TGI: 30600 nM
HOP-62 NSCLC
  GI50: 638 nM
  TGI: 25000 nM
OVCAR-3 ovarian
  GI50: 357 nM
  TGI: 3410 nM
NCI-H226 lung
  GI50: 12400 nM
  TGI: 27700 nM
IGROV1 ovarian
  GI50: 1410 nM
  TGI: 29100 nM
A549 NSCLC
  GI50: 642 nM
  TGI: 16600 nM
NCI-H460 lung
  GI50: 397 nM
  TGI: 11400 nM
PC-3 prostate
  GI50: 409 nM
  TGI: 17500 nM
UACC-62 melanoma
  GI50: 735 nM
  TGI: 21200 nM
NCI-H23 lung
  GI50: 440 nM
  TGI: 18200 nM
SK-MEL-5 melanoma
  GI50: 368 nM
  TGI: 1890 nM
EKVX NSCLC
  GI50: 632 nM
  TGI: 20000 nM
MDA-MB-435
  GI50: 200 nM
  TGI: 605 nM
HT29 colon
  GI50: 336 nM
  TGI: 1430 nM
HS 578T breast
  GI50: 535 nM
  TGI: 37200 nM
U251 CNS
  GI50: 590 nM
  TGI: 16200 nM
SK-MEL-2 melanoma
  GI50: 357 nM
  TGI: 24600 nM
786-0 renal
  GI50: 591 nM
  TGI: 19600 nM
KM12 colon
  GI50: 444 nM
  TGI: 12100 nM
SW-620 colon
  GI50: 379 nM
  TGI: 17800 nM
CAKI-1 renal
  GI50: 373 nM
  TGI: 17200 nM
MOLT-4 leukemia
  GI50: 479 nM
  TGI: 21200 nM
SR leukemia
  GI50: 330 nM
  TGI: 28000 nM
TK-10 renal
  GI50: 793 nM
  TGI: 37100 nM
HCT-116 colon
  GI50: 494 nM
  TGI: 12700 nM
